Measurements: PubChem BioAssay AID624491 (Broad Institute, 2012)

System: D54 ERlucT glycosylation luciferase reporter, luminescence, 24 h
Test: N-linked glycosylation inhibitors, luciferase reporter, dose response, D54 ERlucT cells, luminescence, cherry-picks (AID 624491);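 also: signal gain reflects blocked N-linked glycosylation of a luciferase reporter; actives raise luciferase signal so AC26 marks activators of the reporter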

In order of falling AC26:
1. COc1ccc(NC(=O)COC(=O)/C=C/C(=O)OCC(=O)Nc2ccc(OC)c(Cl)c2)cc1Cl  16600 nM
2. CNC(=O)c1cccn(Cc2cc(C(F)(F)F)cc(C(F)(F)F)c2)c1=O  16000 nM
3. CCC12CCC3c4ccc(O)cc4CCC3C1CC(O)C2O (centres undefined)  10000 nM
4. CCOc1ccc(S(=O)(=O)NCc2cccnc2)cc1NC(=O)c1ccccc1F  9740 nM
5. O=C(CSc1c2c(nc3ccc(Cl)cc13)CCCC2)N1CCN(C(=O)c2ccco2)CC1  7690 nM
6. C=C(C)Cn1c2ccc(NC(=O)CCc3cccc(Cl)c3)cc2c(=O)n1C  7490 nM
7. O=C(Nc1ccc(Cl)cn1)c1cccc(F)c1  6980 nM
8. O=C(N/N=C/c1cccc(Br)c1)c1ccc(N2CCCC2=O)cc1  6630 nM
9. CCc1ccc(/C=N/NC(=O)c2nnn(-c3nonc3N)c2C(C)C)cc1  6420 nM
10. CCOC(=O)C1=C(Cc2ccc(F)cc2)C(=O)c2ccccc2C1=O  6390 nM
11. COC(=O)c1[nH]c2cc(OC)c(OC)cc2c1/C=N/Nc1ccccc1  6360 nM
12. COc1cc2c(cc1OC)CN(C(=O)c1ccc3nc[nH]c3c1)CC2  6320 nM
13. COc1cc2c(C#N)c(N3CCc4ccccc4C3)nc(N)c2c(N)n1  6220 nM
14. CCCCCCC(=O)N(O)C1CC(=O)N(Cc2ccccc2)C1=O (centres undefined)  6200 nM
15. COc1ccc(CNC(=O)C/C(C)=N/NC(=O)COc2ccc(C)cc2Br)cc1  5660 nM
16. Cc1nc2ccccc2c2oc(C(=O)NCCCN3CC(C)CC(C)C3)cc12 (centres undefined)  5380 nM
17. Cc1cc(C)c(NC(=O)CSc2nc(COc3ccccc3)nc3ccccc23)c(C)c1  5220 nM
18. Cc1ccc(Cl)cc1N1CCN(S(=O)(=O)c2ccc(-c3ccc(=O)[nH]n3)o2)CC1  5210 nM
19. COc1ccc(/C=C/C(=O)c2ccc3c(c2)OCCO3)cc1[N+](=O)[O-]  5050 nM
20. O=C(N=Nc1c(O)[nH]c2ccc(Br)cc12)c1cc(-c2cccs2)nc2ccccc12  4850 nM
21. COc1ccc(NC(=O)c2cc(S(=O)(=O)N(C)C)ccc2N2CCCC2)cc1Cl  4800 nM
22. COc1ccc(/C=C/C(=O)Oc2cccc(/C=N/NC(=O)COc3c(C)cccc3C)c2)cc1  4770 nM
23. O=C(CN1C(=O)/C(=C\c2ccc(F)cc2)Oc2ccccc21)N1CCN(c2ccccn2)CC1  4740 nM
24. COc1ccc(-c2nn(C)c(=O)c3ccccc23)cc1NS(C)(=O)=O  4620 nM
25. Cc1cccc(/C=N\Nc2cn[nH]c(=O)c2Cl)c1  4560 nM
26. COc1ccc(C2=NOC(C(=O)NCc3ccc(F)cc3)C2)cc1OC (centres undefined)  4460 nM
27. Cc1ccc(-c2cc(C(=O)N3CC(C)OC(C)C3)c3ccccc3n2)o1 (centres undefined)  4280 nM
28. CC(C)c1ccc(OCc2ccc(C(=O)N3CCCC3)o2)cc1  4230 nM
29. COc1ccc(C=CC(=O)c2c(OC)cc(OC)c(OC)c2O)cc1  4040 nM
30. COc1ccccc1-c1cc(NC=O)c2ncc(-c3cccc(C(=O)N(C)C)c3)n2c1  4020 nM
31. CCCCCCC(=O)N(O)C1CC(=O)N(c2ccc(C)cc2)C1=O (centres undefined)  3990 nM
32. COc1ccc(-c2cc3ccccc3oc2=O)cc1NC(=S)NC(=O)c1ccc2c(c1)OCCO2  3970 nM
33. Nc1ccc(C(=O)N2CCN(S(=O)(=O)c3ccc4c(c3)OCCO4)CC2)cc1[N+](=O)[O-]  3880 nM
34. Cc1cccc2cc(/C=C/C(=O)c3ccco3)c(Cl)nc12  3830 nM
35. CC(C)(C)OC(=O)[C@H](Cc1ccccc1)NC(=O)c1nc[nH]c1C(=O)N1CCc2ccccc2C1  3820 nM
36. CCOc1cc(/C=C/C(=O)c2ccc3c(c2)OCCO3)ccc1OCC(=O)N(C)C  3700 nM
37. CCCCNC(=O)c1cc(-c2ccc(F)cc2)on1  3450 nM
38. COc1cccc(N2[C@@H](CC(C)=O)c3ccc(/C=C/C(C)=O)cc3S2(=O)=O)c1  3280 nM
39. O=C(C=Cc1ccccc1F)c1ccccc1  3230 nM
40. CC(C)Oc1ccc(C(=O)/C=C2/C(=O)Nc3ccccc32)cc1  3230 nM
41. CCOC(=O)c1[nH]c(C)c(C(=O)OCC(=O)NC(C)c2ccc(F)cc2)c1C (centres undefined)  3150 nM
42. C=CCOc1ccccc1C(=O)/C=C1/C(=O)Nc2ccccc21  3000 nM
43. Cc1cc(C)c(S(=O)(=O)N(C)CC(=O)N2CCCC2)c(C)c1  2910 nM
44. Cc1onc(C(=O)Nc2cccc(C(F)(F)F)c2)c1[N+](=O)[O-]  2720 nM
45. O=C(NCCc1ccccc1)C1c2ccccc2C(=O)N1Cc1cccs1 (centres undefined)  2690 nM
46. O=C(c1cccc(N2CCCC2=O)c1)N1CCN(c2cccc(Cl)c2)CC1  2600 nM
47. Cn1c(=O)[nH]c(=O)c2c1nc(NN)n2CCOc1ccccc1  2570 nM
48. CCN(CCCNC(=O)COc1cc(=O)n(CC)c2ccccc12)Cc1ccccc1  2530 nM
49. Cc1ccc(C=Nc2ccccc2C(N)=O)cc1  2520 nM
50. CCn1c(=O)c2cc(C(=O)NCCCOC)sc2c2ccccc21  2460 nM
51. Cn1c(=O)cc(OCCCC(=O)NC2CCCC2)c2ccccc21  2400 nM
52. COc1cc(NC(=O)c2ccccc2F)ccc1NC(=O)c1cc2ccccc2o1  2390 nM
53. C[C@@H](NC(=O)c1nc[nH]c1C(=O)N1CCN(c2ccccc2)CC1)c1ccccc1  2110 nM
54. COc1cc(/C=C/C(=O)/C=C(O)/C=C/c2ccc(O)c(OC)c2)ccc1O  2090 nM
55. CC(=O)c1cccc(-c2ccnc3c2CC(C(=O)NCC2CCOCC2)O3)c1 (centres undefined)  2070 nM
56. CC1CN(C(=O)c2cc(-c3ccncc3)nc3ccccc23)CC(C)O1 (centres undefined)  2020 nM
57. Cc1c(C(=O)N/N=C/c2cccnc2)sc(N)c1C#N  2000 nM
58. CC(=O)Nc1cccc(-c2ccnc3c2CC(C(=O)NCCc2ccccc2)O3)c1 (centres undefined)  1910 nM
59. COc1cccc(OCc2nc3ncc(Br)cc3[nH]2)c1  1810 nM
60. Cc1ccccc1OCCc1c(C)[nH]c(=S)[nH]c1=O  1700 nM
61. CCOC(=O)c1c(C)nc2c(c1-c1cc(OC)c(OC)c(OC)c1)C(=O)c1ccccc1-2  1560 nM
62. COc1ccccc1-n1cnc2cc(NCc3ccco3)ccc21  1510 nM
63. Cc1ccc(S(=O)(=O)N(C)C[C@@H]2Oc3ccc(NC(=O)CCC(F)(F)F)cc3CC(=O)N([C@@H](C)CO)C[C@@H]2C)cc1  1470 nM
64. CCN(CC)S(=O)(=O)c1ccc(-c2nnc(SCC(=O)N3CCc4ccccc43)o2)cc1  1460 nM
65. CC1(C(=O)NCc2ccco2)Cc2c(-c3cccc(C(N)=O)c3)ccnc2O1 (centres undefined)  1450 nM
66. COc1ccc(/C=N/NC(=O)c2ccccc2OCc2ccccc2)c(OC)c1  1400 nM
67. CCn1c(=O)c([N+](=O)[O-])c(Cl)c2ccccc21  1390 nM
68. CC(=O)c1cccc(NC(=O)CSc2ncc(C(=O)Nc3ccccc3)c(=O)n2C)c1  1350 nM
69. Cc1ccc(C(=O)Nc2cc(S(=O)(=O)N3CCOCC3)ccc2N2CCCC2)cc1  1310 nM
70. CCc1ccc(N2C(=O)NC(=O)/C(=C\C=C\c3ccco3)C2=O)cc1  1280 nM
71. Cc1ccc(C(c2cc(Cl)c3cccnc3c2O)N2CCN(C)CC2)cc1 (centres undefined)  1280 nM
72. Cc1cccn2c(=O)c3cc(C(=O)NC4CCCC4)c(=N)n(CCc4ccccc4)c3nc12  1280 nM
73. COc1cc(OC)cc(C(=O)c2c(C)c(C#N)c3ccccn23)c1  1220 nM
74. COc1ccc(S(=O)(=O)NCc2ccccn2)cc1NC(=O)c1ccccc1F  1200 nM
75. COc1cc(C(=O)N/N=C/c2ccccn2)cc(OC)c1OC  1160 nM
76. COc1cc(NC(=O)c2cc(-c3ccccc3)nc3c2cnn3C(C)C)cc(OC)c1OC  1150 nM
77. CCN(CC)CCN1C(=O)c2cccc3cc(N)cc(c23)C1=O  1140 nM
78. O=C(OCn1ncc(Cl)c(Cl)c1=O)c1ccc(C(F)(F)F)cc1  1130 nM
79. COc1ccc(C2=NOC(COc3ccc4c(C)cc(=O)oc4c3)C2)c(OC)c1 (centres undefined)  1070 nM
80. Nc1[nH]nc2nc(NCc3ccccc3)c3c(c12)CCN(Cc1ccccc1)C3  1030 nM
81. Cc1[nH][nH]c(=O)c1C(c1ccc(-c2ccc(Cl)c(Cl)c2)o1)c1c(C)[nH][nH]c1=O  917 nM
82. COc1cc(/C=C/c2onc(C)c2[N+](=O)[O-])cc(OC)c1OC  864 nM
83. COc1cc(/C=N/n2cnc3scc(-c4cccs4)c3c2=O)cc(OC)c1OC  701 nM
84. COc1cccc(C2=CC(c3cccs3)n3nnnc3N2)c1 (centres undefined)  700 nM
85. COc1ccc(CNC(=O)c2cccc3c(-c4cccc(C(N)=O)c4)coc23)cc1OC  663 nM
86. O=C1OCC2=C1C(c1ccc3c(c1)OCO3)c1cc3c(cc1O2)OCO3 (centres undefined)  661 nM
87. Cn1c(=O)[nH]c(=O)c2c1nc(SCC(N)=O)n2Cc1cccc(Br)c1  660 nM
88. COc1ccc(Cl)cc1NC(=O)CN(C)CC(=O)Nc1ccccc1N1CCOCC1  658 nM
89. Cc1ccc(-n2nc(C)c(NC(=O)CCl)c2C)cc1C  653 nM
90. Cc1cc(NS(=O)(=O)c2ccc(NC(=O)COc3c(C)cc(Br)cc3C)cc2)no1  550 nM
91. c1ccc2c(c1)C1=NCCN1c1ccccc1-2  544 nM
92. COc1cc(-c2nc3ccc(N4CCN(C)CC4)cc3[nH]2)cc(OC)c1OC  535 nM
93. NC(=O)CC(NC(=O)Cc1ccc(Cl)cc1)c1ccc(NC2CCN(Cc3ccccc3)CC2)c([N+](=O)[O-])c1 (centres undefined)  480 nM
94. Cc1cc(C)c2c(N)c3cccc(C)c3nc2n1  478 nM
95. Cn1c(=O)[nH]c(=O)c2c1nc(N1CCN(Cc3ccccc3)CC1)n2CCCc1ccccc1  436 nM
96. COc1ccccc1OCC(=O)N/N=C/C=C/c1ccc([N+](=O)[O-])o1  432 nM
97. C[C@H](O)[C@@H]1CN2CCc3c([nH]c4ccccc34)[C@@H]2C[C@@H]1N(C)C(=O)c1ccco1  408 nM
98. COc1ccc(C(=O)Nc2ccc3[nH]c(-c4cccc(OC)c4)cc(=O)c3c2)cc1  330 nM
99. O=C1Cc2c([nH]c3ccc([N+](=O)[O-])cc23)-c2ccccc2N1  318 nM
100. COc1cc(-c2nnc(SCC3(c4ccc(Br)cc4)OCCO3)o2)cc(OC)c1OC  210 nM
101. CCNc1nc(NC(C)(C)C)nc(SC(C(C)=O)C(C)=O)n1  208 nM
102. COc1cc2c3c(cccc3c1)C(=O)N(CCN1CCCC1)C2=O  200 nM
103. O=c1cc(-c2ccccc2)[nH]c2ccc(F)cc12  198 nM
104. CCOC(=O)c1[nH]c(C)c(C(=O)N2CCc3ccccc32)c1C  133 nM
105. COc1ccccc1CCC(=O)Nc1ccc2c(c1)c(=O)n(C)n2-c1cccs1  124 nM
106. COc1cc(C(=O)c2cocc2C(=O)c2ccc3c(c2)OCO3)cc(OC)c1OC  111 nM
107. Cc1ccsc1CNc1ncnc2ccc(-c3c(C)noc3C)cc12  102 nM
108. CC(Nc1nc(-c2ccccc2O)nc2ccccc12)c1ccccc1 (centres undefined)  65.6 nM
109. CN1/C(=C/C=C(/C#N)C(N)=O)C(C)(C)c2ccccc21  55.6 nM
